One may read the IC50 as the midpoint of a concentration-inhibition curve.

This experiment has as its target T1, human CRTH2 receptor (Homo sapiens, UniProt Q9Y5Y4, V204A).
T1 construct: expressed in transfected cells; host or cells: COS-7 (transient transfection)
T1 sequence (Q9Y5Y4 1-395 V204A): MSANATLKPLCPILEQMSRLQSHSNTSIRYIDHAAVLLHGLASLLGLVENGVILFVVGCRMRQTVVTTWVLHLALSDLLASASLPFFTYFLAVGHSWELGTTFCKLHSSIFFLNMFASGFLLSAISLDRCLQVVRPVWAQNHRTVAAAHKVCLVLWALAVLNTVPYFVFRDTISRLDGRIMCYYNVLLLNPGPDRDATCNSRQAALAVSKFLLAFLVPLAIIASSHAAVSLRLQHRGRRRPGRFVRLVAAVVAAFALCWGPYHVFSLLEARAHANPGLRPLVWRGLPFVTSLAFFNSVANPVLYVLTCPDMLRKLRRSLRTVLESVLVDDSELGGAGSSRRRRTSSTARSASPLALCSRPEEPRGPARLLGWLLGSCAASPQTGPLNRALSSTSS
Kind of experiment: CRTH2 receptor binding assay ([3H]PGD2 competition on whole transfected cells). Particulars: competition binding with 0.1 nM [3H]PGD2, whole cells expressing CRTH2, 3 h at 4° C. From the text: Generation/origin of the cDNA Constructs. The coding sequence of the human CRTH2 receptor (genbank accession no NM_004778) was amplified by PCR from a human hippocampus cDNA library and inserted into the pcDNA3.1(+) expression vector (invitrogen) via 5′ HindIII and 3′ EcoRI. The sequence identity of the construct was verified by restriction endonuclease digests and sequencing in both directions on an ABI Prism (Applied Biosystems, Foster City, Calif.).
Cell Culture and Transfection. COS-7 cells were grown in Dulbecco's modified Eagle's medium (DMEM) 1885 supplemented with 10% fetal bovine serum, 100 units/ml penicillin, […] streptomycin, and kept at 37° C. in a 10% CO2 atmosphere. HEK293 cells were maintained in Minimum Essential medium (MEM) supplemented with 10% (v/v) heat inactivated fetal calf serum (HIFCS), 2 mM Glutamax™-I, 1% non essential amino acids (NEAA), 1% sodium pyruvate and 10 μg/ml gentamicin. For binding experiments, COS7 cells were transiently transfected with the CRTH2 receptor using a calcium phosphate-DNA coprecipitation method with the addition of chloroquine (as described by Holst B, Hastrup H, Raffetseder U, Martini L, Schwartz T W. J Biol. Chem. 2001 Jun. 8; 276(23):19793-9.)
Binding assay. 24 h after transfection COS-7 cells were seeded into 96 well plates at a density of 30.000 cells/well. Competition binding experiments on whole cells were then performed about 18-24 h later using 0.1 nM [^3H]PGD2 (NEN, 172 Ci/mmol) in a binding buffer consisting of HBSS (GIBCO) and 10 mM HEPES. Competing ligands were diluted in DMSO which was kept constant at 1% (v/v) of the final incubation volume. Total and nonspecific binding were determined in the absence and presence of 10 μM PGD2. Binding reactions were routinely conducted for 3 h at 4° C. and terminated by 2 washes (100 μl each) with ice cold binding buffer. Radioactivity was determined by liquid scintillation counting in a TOPCOUNTER (Packard) following over night incubation in Microscint 20. Stable HEK293 cells were seeded at a density of 30.000 cells/well 18-24 h prior to the binding assay which was performed essentially as described for COS7 cells above. Determinations were made in duplicates.
Curve analysis was performed with the GraphPadPrism software 3.0 (Graphpad Prism Inc., San Diego, USA) and IC50 values were calculated as a measure of the antagonistic potencies.
As for `O=C(COc1ccc(Cl)cc1)Nc1cccc(C(=O)Nc2ccccc2C(=O)O)c1` [B1, 2-{3-[2-(4-Chlorophenoxy)acetylamino]benzoylamino}benzoic acid], the IC50 is below 0.5 µM.
For `O=C(/C=C/c1ccc(OC(F)(F)F)cc1)Nc1cccc(C(=O)Nc2ccccc2C(=O)O)c1` [B2, 2-{3-[(E)-3-(4-Trifluoromethoxyphenyl)acryloylamino]benzoylamino}benzoic acid] the value was below 0.5 µM.
For `O=C(COc1ccc(Cl)cc1Cl)Nc1cccc(C(=O)Nc2ccccc2C(=O)O)c1` [B3, 2-{3-[2-(2,4-Dichlorophenoxy)acetylamino]benzoylamino}-benzoic acid] the value was below 0.5 µM.
For `O=C(CCc1ccccc1)Nc1cccc(C(=O)Nc2ccccc2C(=O)O)c1` [B4, 2-[3-(3-Phenylpropionylamino)benzoylamino]benzoic acid] the value was 0.5 to 5 µM; for `Cc1ccc(S(=O)(=O)Nc2cccc(C(=O)Nc3ccccc3C(=O)O)c2)cc1` [B5, 2-[3-(Toluene-4-sulfonylamino)benzoylamino]benzoic acid], 0.5 to 5 µM; for `C/C(=C\c1ccccc1)C(=O)Nc1cccc(C(=O)Nc2ccccc2C(=O)O)c1` [B6, 2-[3-((E)-2-Methyl-3-phenylacryloylamino)benzoylamino]benzoic acid], 0.5 to 5 µM.
For `O=C(Nc1ccccc1C(=O)O)c1cccc(NS(=O)(=O)c2ccc(F)cc2)c1` [B7, 2-[3-(4-Fluoro-benzenesulfonylamino)benzoylamino]benzoic acid], the IC50 lay within 0.5 to 5 µM.
For `O=C(Nc1ccc(OC(F)(F)F)cc1)Nc1cccc(C(=O)Nc2ccccc2C(=O)O)c1` [B8, 2-{3-[3-(4-Trifluoromethoxyphenyl)ureido]benzoylamino}benzoic acid] the value was 0.5 to 5 µM; for `COc1ccc(C(=O)Nc2cccc(C(=O)Nc3ccccc3C(=O)O)c2)cc1OC` [B9, 2-[3-(3,4-Dimethoxybenzoylamino)benzoylamino]benzoic acid], 0.5 to 5 µM; for `O=C(COCc1ccccc1)Nc1cccc(C(=O)Nc2ccccc2C(=O)O)c1` [B10, 2-[3-(2-Benzyloxyacetylamino)benzoylamino]benzoic acid], 0.5 to 5 µM.
On to `COc1ccc(C(=O)Nc2cccc(C(=O)Nc3ccccc3C(=O)O)c2)cc1` [B11, 2-[3-(4-Methoxybenzoylamino)benzoylamino]benzoic acid], for which the IC50 is 0.5 to 5 µM.
For `O=C(COc1ccc(Cl)cc1)Nc1cc(C(=O)Nc2ccc(I)cc2C(=O)O)ccc1Cl` [B12, 2-{4-Chloro-3-[2-(4-chloro-phenoxy)acetylamino]benzoylamino}-5-iodobenzoic acid] the value was 0.5 to 5 µM.
For `O=C(Nc1ccc(Br)cc1C(=O)O)c1cccc(S(=O)(=O)Nc2ccc(Cl)nc2)c1` [B13, 5-Bromo-2-[3-(6-chloropyridin-3-ylsulfamoyl)benzoylamino]benzoic acid] the value was 0.5 to 5 µM; for `O=C(Nc1ccc(Br)cc1C(=O)O)c1cccc(S(=O)(=O)Nc2ccc(OC(F)(F)F)cc2)c1` [B14, 5-Bromo-2-[3-(4-trifluoromethoxyphenylsulfamoyl)benzoylamino]benzoic acid], 0.5 to 5 µM.
For `O=C(Nc1ccc(Br)cc1C(=O)O)c1cccc(S(=O)(=O)Nc2ccc(Br)cc2)c1` [B15, 5-Bromo-2-[3-(4-bromophenylsulfamoyl)benzoylamino]benzoic acid] the value was below 0.5 µM; for `O=C(Nc1ccc(Br)cc1C(=O)O)c1cccc(S(=O)(=O)Nc2cccc(Oc3ccccc3)c2)c1` [B16, 5-Bromo-2-[3-(3-phenoxyphenylsulfamoyl)benzoylamino]benzoic acid], below 0.5 µM; for `O=C(Nc1ccc(Br)cc1C(=O)O)c1cccc(S(=O)(=O)Nc2ccc(I)cc2)c1` [B17, 5-Bromo-2-[3-(4-iodophenylsulfamoyl)benzoylamino]benzoic acid], below 0.5 µM.
On to `O=C(Nc1ccccc1C(=O)O)c1ccc(Br)c(S(=O)(=O)Nc2ccc(Cl)nc2)c1` [B18, 2-[4-Bromo-3-(6-chloropyridin-3-ylsulfamoyl)benzoylamino]benzoic acid], for which the IC50 was in the range of 0.5 to 5 µM.
For `O=C(Nc1ccccc1C(=O)O)c1ccc(Br)c(S(=O)(=O)Nc2ccc(OC(F)(F)F)cc2)c1` [B19, 2-[4-Bromo-3-(4-trifluoromethoxyphenylsulfamoyl)benzoylamino]benzoic acid] the value was below 0.5 µM; for `Cc1c(S(=O)(=O)Nc2ccc(OC(F)(F)F)cc2)csc1C(=O)Nc1ccccc1C(=O)O` [B20, 2-[3-Methyl-4-(4-trifluoromethoxyphenylsulfamoyl)thiophene-2-carbonylamino]benzoic acid], below 0.5 µM.
`O=C(Nc1ccccc1C(=O)O)c1ccc(Br)c(S(=O)(=O)Nc2cccc(Oc3ccccc3)c2)c1` [B21, 2-[4-Bromo-3-(3-phenoxyphenylsulfamoyl)benzoylamino]benzoic acid] gave an IC50 below 0.5 µM.
For the compound `Cc1c(S(=O)(=O)Nc2cccc(Oc3ccccc3)c2)csc1C(=O)Nc1ccccc1C(=O)O` [B22, 2-[3-Methyl-4-(3-phenoxyphenylsulfamoyl)thiophene-2-carbonylamino]-benzoic acid], the IC50 was in the range of 0.5 to 5 µM.
For `O=C(Nc1ccccc1C(=O)O)c1ccc(Br)c(S(=O)(=O)Nc2ccc(I)cc2)c1` [B23, 2-[4-Bromo-3-(4-iodophenylsulfamoyl)benzoylamino]benzoic acid] the value was below 0.5 µM.
For `Cc1c(S(=O)(=O)Nc2ccc(I)cc2)csc1C(=O)Nc1ccccc1C(=O)O` [B24, 2-[4-(4-Iodophenylsulfamoyl)-3-methylthiophene-2-carbonylamino]benzoic acid] the value was below 0.5 µM.
Compound `Cc1c(S(=O)(=O)Nc2ccc(Br)cc2)csc1C(=O)Nc1ccccc1C(=O)O` [B25, 2-[4-(4-Bromophenylsulfamoyl)-3-methylthiophene-2-carbonylamino]-benzoic acid] had an IC50 below 0.5 µM.
For `O=C(Nc1ccc(Br)cc1C(=O)O)c1ccc(Br)c(S(=O)(=O)Nc2ccc(Br)cc2)c1` [B26, 5-Bromo-2-[4-bromo-3-(4-bromophenylsulfamoyl)benzoylamino]benzoic acid] the value was below 0.5 µM; for `Cc1c(S(=O)(=O)Nc2ccc(Br)cc2)csc1C(=O)Nc1ccc(Br)cc1C(=O)O` [B27, 5-Bromo-2-[4-(4-bromophenylsulfamoyl)-3-methylthiophene-2-carbonylamino]benzoic acid], below 0.5 µM; for `O=C(Nc1ccc(Br)cc1C(=O)O)c1cccc(S(=O)(=O)Nc2ccc(Cl)cc2)c1` [B28, 5-Bromo-2-[3-(4-chlorophenylsulfamoyl)benzoylamino]benzoic acid], below 0.5 µM.
`O=C(Nc1ccc(Br)cc1C(=O)O)c1cccc(S(=O)(=O)Nc2ccc(F)cc2)c1` [B29, 5-Bromo-2-[3-(4-fluorophenylsulfamoyl)benzoylamino]benzoic acid]: the 50% inhibitory concentration (IC50) was below 0.5 µM.
For `O=C(Nc1ccc(Cl)cc1C(=O)O)c1cccc(S(=O)(=O)Nc2ccc(Cl)cc2)c1` [B30, 5-Chloro-2-[3-(4-chlorophenylsulfamoyl)benzoylamino]benzoic acid] the value was below 0.5 µM; for `O=C(Nc1ccc(Cl)cc1C(=O)O)c1cccc(S(=O)(=O)Nc2ccc(F)cc2)c1` [B31, 5-Chloro-2-[3-(4-fluorophenylsulfamoyl)benzoylamino]benzoic acid], below 0.5 µM; for `Cc1ccc(OCC(=O)Nc2cccc(C(=O)Nc3ccccc3C(=O)O)c2)cc1C` [B32], below 0.5 µM.
For `O=C(Nc1ccccc1C(=O)O)c1cccc(NC(=O)c2cccs2)c1` [B33] the value was 0.5 to 5 µM.
For `COc1cc(C(=O)Nc2cccc(C(=O)Nc3ccccc3C(=O)O)c2)cc(OC)c1OC` [B34] the value was 0.5 to 5 µM; for `O=C(Nc1ccccc1C(=O)O)c1cccc(NC(=O)c2ccco2)c1` [B35], above 5 µM; for `O=C(Nc1ccccc1C(=O)O)c1cccc(NC(=O)C(c2ccccc2)c2ccccc2)c1` [B36], below 0.5 µM.
The compound `O=C(Cc1ccccc1)Nc1cccc(C(=O)Nc2ccccc2C(=O)O)c1` [B37] returned a half-inhibitory concentration (IC50) of 0.5 to 5 µM.

Source of the values: patent US20090105218A1, “CRTH2 Receptor Ligands For Therapeutic Use” (7TM PHARMA A/S, priority 2004, published 2009).
